Source: a polymer gas permeability compilation

Compound	CH4 permeability [Barrer]	CO2 permeability [Barrer]	H2 permeability [Barrer]	N2 permeability [Barrer]	O2 permeability [Barrer]
*/C(C)=C(/*)[Si](C)(C)C (repeat unit)	15000	28600	15000	6600	9000
*/C=C/C1CC(*)CC1[Si](C)(C)C[Si](C)(C)C (repeat unit)	8.5	67	73	3.7	16
*/C=C/C1CCC(*)C1 (repeat unit)	2.5	15.4	21	1.5	2.8
*/N=C1/c2ccc(C(c3ccc4c(c3)-c3nc5cc(Oc6ccc(*)c(*)c6)ccc5n3C4=O)(C(F)(F)F)C(F)(F)F)cc2C(=O)N1* (repeat unit)	0.54	27.6	–	1.2	7.9
*=CC1CC(C=*)C(C(F)(F)F)(C(F)(F)F)C1(F)F (repeat unit)	9.54	102	–	10.7	27.7
*=CC1CCC(C=*)C1 (repeat unit)	2.5	15.4	21	1.5	2.8
*C(C)=C(*)[Si](C)(C)C (repeat unit)	14500	31900	15500	5650	12200
*C(F)(F)C(*)(F)F (repeat unit)	10	12.7	–	–	4.9
*C1C(*)C2CC1C1C2C([Si](C)(C)C)C1[Si](C)(C)C (repeat unit)	3310	11300	4090	1240	2380
*C1C2CC(C1*)C([Si](C)(C)C)C2 (repeat unit)	1090	–	6700	–	1700
*C1C2CC(CF)C(C2)C1* (repeat unit)	13	200	166	17	50
*C=C(*)c1cccc(O[Si](C)(C)C(C)(C)C)c1 (repeat unit)	12	58	64	7.6	17
*CC(*)(C)C(=O)OCC (repeat unit)	0.347	6.03	21.8	0.276	1.52
*CC(*)(C)C(=O)OCC(F)(F)C(F)(F)C(F)(F)C(F)(F)C(F)(F)C(F)(F)C(F)(F)F (repeat unit)	14	130	82	15	30
*CC(*)(C)C(=O)OCCOCC (repeat unit)	1.23	8.56	–	0.385	1.45
*CC(*)(C)c1ccccc1 (repeat unit)	0.14	3	–	0.15	0.82
*CC(*)(F)F (repeat unit)	0.02	0.517	0.538	0.0223	0.0826
*CC(*)C(=O)OC (repeat unit)	0.262	8.19	10.6	0.213	1.06
*CC(*)C(=O)OCC (repeat unit)	14.9	176	60.4	6.46	19
*CC(*)C(=O)OCCCCCCCCCC (repeat unit)	47.8	261	92.7	19	47.6
*CC(*)OC(=O)c1ccc(C)cc1 (repeat unit)	0.417	6.73	–	0.339	1.72
*CC(*)[Si](C)(C)C (repeat unit)	18	190	200	11	44
*CC(*)c1ccc(C)cc1 (repeat unit)	2.2	29.8	–	1.5	7.2
*CC(*)c1ccc(Cl)cc1 (repeat unit)	0.26	4.3	–	0.23	1.2
*CC(*)c1ccc(OC(C)=O)cc1 (repeat unit)	0.99	16.3	–	0.64	3.1

Compound	CH4 permeability [Barrer]	CO2 permeability [Barrer]	H2 permeability [Barrer]	N2 permeability [Barrer]	O2 permeability [Barrer]
*CC(*)c1ccc(OC)cc1 (repeat unit)	0.91	18.9	–	0.61	2.6
*CC(*)c1ccc([Si](C)(C)C)cc1 (repeat unit)	34	227	182	16	56
*CC(C)C(=O)OC(C)C(*)=O (repeat unit)	1	0.905	–	0.04	0.26
*CC* (repeat unit)	3.85	7.32	–	0.237	0.735
*CC1CC(C*)C2C1C([Si](O[Si](C)(C)C)(O[Si](C)(C)C)O[Si](C)(C)C)C2[Si](O[Si](C)(C)C)(O[Si](C)(C)C)O[Si](C)(C)C (repeat unit)	215	840	460	75	220
*CCCC* (repeat unit)	13	48.4	–	4	11.3
*CCCCO* (repeat unit)	22.5	170	36	8.85	21.5
*CCC[Si](*)(C)C (repeat unit)	8.4	–	–	3	9.5
*CCOC(=O)c1ccc(C(=O)O*)cc1 (repeat unit)	3	0.173	–	0.013	0.045
*CC[Si](C)(C)c1ccc([Si](*)(C)C)cc1 (repeat unit)	0.53	4.01	–	0.257	1.11
*CN1CN(*)c2cc3c(cc21)C1(C(C)C)c2ccccc2C3(C(C)C)c2cc(*)c(*)cc21 (repeat unit)	215	–	4740	188	1070
*N=P(*)(C)c1ccccc1 (repeat unit)	0.7	6.5	–	0.6	1.8
*NC(=O)c1ccc(C(c2ccc(C(=O)O)c(C(=O)Nc3cc(Oc4ccc(*)c(N)c4)ccc3N)c2)(C(F)(F)F)C(F)(F)F)cc1C(=O)O (repeat unit)	0.087	3.69	–	0.17	0.97
*NCC(C)(C)CC(C)CCNC(=O)c1ccc(C(*)=O)cc1 (repeat unit)	0.018	0.33	–	0.016	0.092
*Nc1c(C)cc(C(C)(C)c2cc(C)c(NC(=O)c3ccc(Oc4cc(C(C)(C)C)c(Oc5ccc(C(*)=O)cc5)cc4C(C)(C)C)cc3)c(C)c2)cc1C (repeat unit)	2.24	43	–	1.73	9.38
*Nc1ccc(C(c2ccc(NC(=O)c3ccc(Oc4cc(C(C)(C)C)c(Oc5ccc(C(*)=O)cc5)cc4C(C)(C)C)cc3)cc2)(C(F)(F)F)C(F)(F)F)cc1 (repeat unit)	1.24	36	–	1.51	7.88
*Nc1ccc(C(c2ccc(NC(=O)c3cccc(C(*)=O)c3)cc2)(C(F)(F)F)C(F)(F)F)cc1 (repeat unit)	0.2	9	29	0.42	2.4
*Nc1ccc(Oc2c(F)c(F)c(Oc3ccc(NC(=O)CN4C(=O)c5ccc(C(*)=O)cc5C4=O)cc3)c(F)c2F)cc1 (repeat unit)	0.013	1.27	–	0.071	0.284
*Nc1ccc(S(=O)(=O)c2ccc(NC(=O)c3cccc(C(*)=O)c3)cc2)cc1 (repeat unit)	0.014	0.78	4.3	0.031	0.19
*Nc1cccc(NC(=O)c2ccc(C(c3ccc(C(*)=O)cc3)(C(F)(F)F)C(F)(F)F)cc2)c1 (repeat unit)	0.24	8.4	23	0.4	2.2
*OC(=O)Oc1c(C)cc(C(C)(C)c2cc(C)c(*)c(C)c2)cc1C (repeat unit)	0.955	19.6	–	1.07	5.54
*OC(=O)Oc1ccc(C(=C(Cl)Cl)c2ccc(*)cc2)cc1 (repeat unit)	0.27	6.5	11.3	0.26	1.4
*OC(=O)Oc1ccc(C2(c3ccc(*)cc3)CC3CCC2C3)cc1 (repeat unit)	0.48	9.1	22	0.47	2.4
*OC(=O)Oc1ccc(C2(c3ccc(*)cc3)CCCCC2)cc1 (repeat unit)	0.092	2.2	9.1	0.105	0.6
*OC(=O)Oc1ccc(C2(c3ccc(*)cc3)c3ccccc3-c3ccccc32)cc1 (repeat unit)	0.581	15.1	–	0.592	3.18
